Reference: patent US20190152946A1, “Novel Compounds” (GlaxoSmithKline Intellectual Property Development Limited, priority 2016, published 2019)

Tests used:
Type in all cases: cell-based
TEC = target: T1, TEC (Homo sapiens, UniProt P42680); experiment: Expression proteomics in THP-1 cells, TEC level; details: TEC protein log2 fold change, 24 h, 1.0 μM
T1 construct: endogenous in cells; host or cells: THP-1
T1 sequence (P42680 1-631): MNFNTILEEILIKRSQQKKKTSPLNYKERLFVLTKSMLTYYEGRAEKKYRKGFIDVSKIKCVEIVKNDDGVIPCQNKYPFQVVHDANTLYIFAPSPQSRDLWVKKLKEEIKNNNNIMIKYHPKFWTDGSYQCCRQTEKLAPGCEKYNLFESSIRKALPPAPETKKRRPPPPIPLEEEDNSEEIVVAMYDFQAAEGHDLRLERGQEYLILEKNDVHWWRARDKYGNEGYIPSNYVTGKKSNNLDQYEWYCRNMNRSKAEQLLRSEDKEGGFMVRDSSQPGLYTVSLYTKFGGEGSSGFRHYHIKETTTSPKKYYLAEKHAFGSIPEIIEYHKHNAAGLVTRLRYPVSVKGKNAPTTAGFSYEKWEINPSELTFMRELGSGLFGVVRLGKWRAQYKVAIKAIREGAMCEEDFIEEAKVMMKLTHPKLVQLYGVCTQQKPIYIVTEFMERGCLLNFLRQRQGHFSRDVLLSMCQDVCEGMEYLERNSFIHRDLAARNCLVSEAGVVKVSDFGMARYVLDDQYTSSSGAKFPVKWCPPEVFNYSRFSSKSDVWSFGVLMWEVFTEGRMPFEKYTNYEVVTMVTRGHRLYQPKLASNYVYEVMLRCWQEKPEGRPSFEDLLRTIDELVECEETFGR
Protocol: (§1) THP-1 cells were seeded at a concentration of 3×10^6 cells in T175 flasks with 60 mL growth medium (RPM11640+10% FBS). […] of a 10× compound solution prepared in growth medium (DMSO), IAP PROTAC) was added and the cells were treated for the indicated time points (6 or 24 h) at 37° C., 5% CO2. For harvesting the cells were collected into falcon tubes on ice, centrifuged and washed twice in cold PBS (Life technologies). After the last washing step the supernatant was removed and the pellets were snap-frozen in liquid N2 and stored at −80° C. and lysed in 2% SDS for 3 min at 95° C. in a thermomixer (Thermo Fisher Scientific), followed by digestion of DNA with Benzonase at 37° C. for 1.5 h. Lysate was cleared by centrifugation an protein concentration in supernatant was determined by BCA assay.
(§2) Leukemia 25, 89-100 (2011).
(§3) Samples were dried in vacuo and resuspended in 0.05% trifluoroacetic acid in water. […]
(§4) Reporter ion intensities were read from raw data and multiplied with ion accumulation times (the unit is milliseconds) so as to yield a measure proportional to the number of ions;
(§5) Nat Biotech 29, 255-265 (2011). this measure is referred to as ion area Savitski, M. M. et al. Delayed Fragmentation and Optimized Isolation Width Settings for Improvement of Protein Identification and Accuracy of Isobaric Mass Tag Quantification on Orbitrap-Type Mass Spectrometers. […]

PTK2B = target: T2, PTK2B (Homo sapiens, UniProt Q14289); experiment: Expression proteomics in THP-1 cells, PTK2B level; details: PTK2B protein log2 fold change, 24 h, 1.0 μM
T2 construct: endogenous in cells; host or cells: THP-1
T2 sequence (Q14289 whole entry): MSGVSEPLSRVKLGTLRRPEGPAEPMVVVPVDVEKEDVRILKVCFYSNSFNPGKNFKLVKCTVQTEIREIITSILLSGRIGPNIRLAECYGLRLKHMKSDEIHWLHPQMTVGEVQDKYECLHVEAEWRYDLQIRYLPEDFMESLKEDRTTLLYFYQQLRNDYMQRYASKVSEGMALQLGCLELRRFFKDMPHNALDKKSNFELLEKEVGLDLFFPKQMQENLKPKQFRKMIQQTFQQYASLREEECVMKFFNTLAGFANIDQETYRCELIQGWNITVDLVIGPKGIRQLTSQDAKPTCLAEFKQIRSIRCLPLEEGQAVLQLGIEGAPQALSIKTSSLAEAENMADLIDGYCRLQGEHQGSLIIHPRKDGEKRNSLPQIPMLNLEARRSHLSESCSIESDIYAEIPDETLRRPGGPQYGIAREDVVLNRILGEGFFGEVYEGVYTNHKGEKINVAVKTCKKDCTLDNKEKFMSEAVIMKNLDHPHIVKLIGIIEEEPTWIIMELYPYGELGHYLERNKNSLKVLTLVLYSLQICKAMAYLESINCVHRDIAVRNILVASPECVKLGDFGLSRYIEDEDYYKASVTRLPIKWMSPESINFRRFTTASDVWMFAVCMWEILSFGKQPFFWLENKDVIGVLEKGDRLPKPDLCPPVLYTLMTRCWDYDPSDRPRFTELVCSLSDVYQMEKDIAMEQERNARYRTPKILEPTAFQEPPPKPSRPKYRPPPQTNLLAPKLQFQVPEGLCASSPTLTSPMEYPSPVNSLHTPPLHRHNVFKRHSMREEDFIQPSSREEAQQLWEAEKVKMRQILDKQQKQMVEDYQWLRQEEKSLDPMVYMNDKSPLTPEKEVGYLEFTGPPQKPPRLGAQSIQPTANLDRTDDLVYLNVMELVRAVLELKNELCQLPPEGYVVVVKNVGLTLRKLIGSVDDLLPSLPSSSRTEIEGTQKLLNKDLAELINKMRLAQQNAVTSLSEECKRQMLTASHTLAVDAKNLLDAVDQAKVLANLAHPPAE
Protocol: as §1, §2, §3, §4, §5

AKT2 = target: T3, AKT2 (Homo sapiens, UniProt P31751); experiment: Expression proteomics in THP-1 cells, AKT2 level; details: AKT2 protein log2 fold change, 24 h, 1.0 μM
T3 construct: endogenous in cells; host or cells: THP-1
T3 sequence (P31751 whole entry): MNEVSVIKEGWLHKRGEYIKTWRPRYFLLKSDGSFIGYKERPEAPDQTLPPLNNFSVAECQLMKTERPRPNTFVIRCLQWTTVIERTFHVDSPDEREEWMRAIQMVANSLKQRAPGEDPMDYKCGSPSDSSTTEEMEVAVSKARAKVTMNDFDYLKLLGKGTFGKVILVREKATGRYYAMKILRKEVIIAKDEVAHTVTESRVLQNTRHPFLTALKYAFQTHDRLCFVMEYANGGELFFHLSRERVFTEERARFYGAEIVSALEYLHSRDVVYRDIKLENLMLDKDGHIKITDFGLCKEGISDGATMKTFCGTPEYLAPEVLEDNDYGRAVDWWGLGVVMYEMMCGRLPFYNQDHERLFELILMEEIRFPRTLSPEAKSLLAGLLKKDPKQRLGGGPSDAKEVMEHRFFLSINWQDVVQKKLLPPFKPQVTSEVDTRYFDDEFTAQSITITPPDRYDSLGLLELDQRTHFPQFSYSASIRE
Protocol: as §1, §2, §3, §4, §5

log2fc_IAP_24 h_1.0 μM_n1 (TEC; replicate n1): −1.79
log2fc_IAP_24 h_1.0 μM_n2 (TEC; replicate n2): −2.04
log2fc_IAP_24 h_1.0 μM_n1 (PTK2B; replicate n1): −1.78
log2fc_IAP_24 h_1.0 μM_n2 (PTK2B; replicate n2): −2.06
log2fc_IAP_24 h_1.0 μM_n1 (AKT2; replicate n1): −1.01
log2fc_IAP_24 h_1.0 μM_n2 (AKT2; replicate n2): −0.89.
SMILES: CNC(=O)c1ccccc1Nc1nc(Nc2ccc(N3CCN(CCOCCOCCOCCOc4ccc5c(c4)CN(C(=O)[C@@H](NC(=O)[C@H](C)NC)C(C)(C)C)[C@H](C(=O)N[C@@H]4CCCc6ccccc64)C5)CC3)cc2)ncc1Cl [IAP, (S)-7-(2-(2-(2-(2-(4-(4-((5-Chloro-4-((2-(methylcarbamoyl)phenyl)amino)pyrimidin-2-yl)amino)phenyl)piperazin-1-yl)ethoxy)ethoxy)ethoxy)ethoxy)-2-((S)-3,3-dimethyl-2-((S)-2-(methylamino)propanamido)butanoyl)-N-((R)-1,2,3,4-tetrahydronaphthalen-1-yl)-1,2,3,4-tetrahydroisoquinoline-3-carboxamide]
